Measured values from US8058314B2, “Conductance of improperly folded proteins through the secretory pathway and related methods for treating disease” (Yale University, priority 1999, dated 2011).
Entries after “also recorded” stand apart in the source; their conditions may differ.

Legend:
[1] = Toxicity test, thapsigargin in drinking water; assay type: in vivo, mice; conditions: drinking water with 1 μM thapsigargin over 3 to 7 days
Procedure: Genetically uniform lab mice were given either normal drinking water (control) or drinking water which contained thapsigargin (1 μM final concentration). The non-control group of mice were given the thapsigargin-treated water over a 3 to 7 day time period.

[2] = test system: α1-antitrypsin, null (Hong Kong); test: Secretion of α1-antitrypsin null (Hong Kong) from stably transfected mouse hepatoma cells, pulse-chase; assay type: cell-based; conditions: 1 μM thapsigargin for 3 hours during chase
Procedure: Experiment 2 is repeated using a cell line that expresses a retention mutation for cc1-antitrypsin, such as the secretion-incompetent variant, null (Hong Kong), retained in stably transfected mouse hepatoma cells (J. Biol. Chem. 269:7514-7519 (1994)). Changes in the cell phenotype are assessed by assaying cells for secretion of a 1-antitrypsin (detailed description in J. Biol. Chem. 268:2001-2008 (1993)).
Briefly, cell monolayers are pulse labeled with [^35S] methionine for 30 minutes, after which the radiolabeled media is removed and replaced with media containing an excess of unlabeled methionine. During the chase period, one set of monolayers is treated with 1 μM thapsigargin for 3 hours, while another set is incubated for 3 hours in drug free media. Secretion of α1-antitrypsin into the media is assessed by immunoprecipitation followed by electrophoresis and autoradiography.
Results. Cells expressing the secretion-incompetent variant of α1-antitrypsin, null (Hong Kong), are pulse labeled for 30 minutes with [^35S] methionine, after which they were incubated in non-radioactive media for 3 hours in the presence or absence of 1 μM thapsigargin. After this chase incubation, the media is collected and subjected to immunoprecipitation with anti-α1-antitrypsin antibodies. Immunoprecipitates are analyzed by SDS-PAGE followed by autoradiography.

[3] = assay type: in vivo, mice
Procedure: A nebulization chamber was constructed using an 8 quart plastic container with a lid that creates an air tight seal. A ‘T piece nebulizer device’ (Hudson RCI T-up Draft Nebumist Nebulizer) was inserted into the container via an opening located on the side of the chamber. The nebulization device was filled with 5 mls of 1 μM thapsigargin dissolved in physiologic saline solution. The gas source (high pressure air) was attached to the set up to create a flow rate of ≧12 liters per minute. Flow was adjusted to maintain a fine visible mist throughout the chamber. Numerous small ventilation holes were placed at the top of the chamber to ensure the escape of carbon dioxide. The nebulization chamber was kept in a fume hood during the experiments to allow for dispersion of any escaped mist.
Mice or cells were placed into the chamber prior to the onset of nebulization. Mice were observed continuously during the nebulization treatments and observations were documented every 15-30 minutes. Lungs were prepared for histologic analysis according to methods described previously (Courtois-Coutry et al., Cell 90:501-510 (1997)).
To examine this issue, six mice were exposed for 3 to 4 hours per day for 14 days to a nebulized solution of 1 μM thapsigargin in normal saline. […] At the end of the 2 week trial, the animals were sacrificed and 4 were processed for histopathologic examination of the lungs.
Wild type and CF mice were exposed to a humidified atmosphere (produced as described in Example 4) containing 1 μM thapsigargin for 3 hours/day for 7-14 days. […] The night before the NPD procedure was performed, mice were taken off Colyte and given water or alimentum (liquid formula). Wet food was also withheld. These steps were taken to decrease the risk of dehydration and/or intestinal obstruction that occur with sedation and dehydration.

ΔF508 CFTR mice = test: Nasal potential difference (NPD) in CF mice homozygous for the ΔF508 mutation; assay type: in vivo; conditions: nebulized 1 μM thapsigargin or 50 microM curcumin, 3 hours/day for 7-14 days
Description: Materials and Methods. CF mice, which were the kind gift of Mitch Drumm, have had the ΔF508 mutation introduced into their endogenous copies of the CFTR gene by homologous recombination and are homozygous for the ΔF508 mutation. Construction of these mice is described in Zeiher, G. B., et al., A mouse model for the delta F508 allele of cystic fibrosis. J. Clin. Invest. 96: 2051-2064, 1995, and additional studies of these mice are described in Steagall W K and Drumm M L, Stimulation of cystic fibrosis transmembrane conductance regulator-dependent short-circuit currents across Delta F508 murine intestines. Gastroenterology, 116(6):1379-88, 1999.
Nasal potential difference was measured essentially as described in Grubb, B. R., Vick, R. N., and Boucher, R. C., Hyperabsorption of Na^+ and raised Ca^2+-mediated Cl^− secretion in nasal epithelia of CF mice, Am. […]
After obtaining a stable baseline reading, infusion of Ringers solution was begun, and recording was initiated. After 5 mins of stable reading, the solution was changed successively to: (i) Ringer solution containing amiloride 10^−5 M; (ii) Ringer solution containing 0 mM chloride and 10^−5 M amiloride; (iii) Ringer solution containing 0 mM chloride, 10^−5 M amiloride, and 10^−5 M isoproterenol. NPD was recorded for each solution for 5 minutes of stable values. […]

[4] = nebulized 1 μM thapsigargin, 14 days, 4 mice examined

SMILES: C/C=C(/C)C(=O)O[C@H]1C(C)=C2[C@H]([C@@H]1OC(=O)CCCCCCC)[C@@](C)(OC(C)=O)C[C@H](OC(=O)CCC)[C@@]1(O)[C@H]2OC(=O)[C@@]1(C)O [thapsigargin]
- deaths, illnesses or side effects [1]: no deaths, illnesses or side effects
- radiolabeled α1-antitrypsin in the media [2]: Radiolabeled α1-antitrypsin protein is present in the media
- ill effects during or between treatments ([3]; nebulized 1 μM thapsigargin, 3 to 4 hours per day for 14 days, six mice): no obvious ill effects
- cellular architecture of the lungs [3, 4]: completely normal
- peribronchiolar lymphocytes [3, 4]: One of the specimens exhibited a moderate peribronchiolar lymphocytic infiltration
- morbidity under treatment ([3]; nebulized 1 microM thapsigargin or 50 microM curcumin, 3 hours/day for 7-14 days): without exhibiting any obvious morbidity
- basal NPD of treated ΔF508 CF mice (ΔF508 CFTR mice): markedly reduced relative to that in untreated CF mice; also recorded: dramatically reduce the basal NPD; also recorded: significantly smaller baseline NPD
